What was measured:
wheat [1] = test: Test C preemergence; format: in vivo, Triticum aestivum; conditions: 0 to 100 scale (0 no effect, 100 complete control)
Summary of the method: (§1)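 Test material, in non-phytotoxic solvent with surfactant, was sprayed on the soil directly after seeding (preemergence) or on young plants of 2–10 cm with one to two leaves (postemergence). Greenhouse, 10 days; 0–100 visual control scale.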

barnyardgrass [2] = test: Test C preemergence; format: in vivo, Echinochloa crusgalli; conditions: 0 to 100 scale (0 no effect, 100 complete control)
Summary of the method: as §1

kochia [3] = test: Test C postemergence; format: in vivo, Bassia scoparia; conditions: 10 days
Summary of the method: as §1

pigweed, palmer [4] = test: Test C postemergence; format: in vivo, Amaranthus palmeri; conditions: 10 days
Summary of the method: as §1

green foxtail [5] = test: Test C postemergence; format: in vivo, Setaria viridis; conditions: 10 days
Summary of the method: as §1

soybean [6] = test: Test C postemergence; format: in vivo, Glycine max; conditions: 10 days
Summary of the method: as §1

ragweed [7] = test: Test C postemergence; format: in vivo, Ambrosia artemisiifolia; conditions: 10 days
Summary of the method: as §1

ryegrass, Italian [8] = test: Test C preemergence; format: in vivo, Lolium multiflorum; conditions: 0 to 100 scale (0 no effect, 100 complete control)
Summary of the method: as §1

blackgrass [9] = test: Test C preemergence; format: in vivo, Alopecurus myosuroides; conditions: 0 to 100 scale (0 no effect, 100 complete control)
Summary of the method: as §1

pigweed, palmer [10] = test: Test C preemergence; format: in vivo, Amaranthus palmeri; conditions: Preemergence, 500 g ai/ha; visual rating after 10 days, 0 to 100 scale (0 no effect, 100 complete control)
Summary of the method: as §1

rice = test: Test D flooded paddy test; format: in vivo, Oryza sativa; conditions: 250 g ai/ha, applied to paddy water, visual rating after 13 to 14 days, scale 0 to 100 (0 no effect, 100 complete control)
Summary of the method: (§2)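 Plants at the 2-leaf stage were grown in pots flooded to 3 cm, and compound was applied directly into the paddy water, with depth kept throughout. After 13–14 days in a greenhouse, injury was rated visually against untreated controls on a 0–100 scale (100 = complete control); a dash means not tested.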

horseweed = test: Test C postemergence; format: in vivo, Erigeron canadensis; conditions: 10 days
Summary of the method: as §1

barnyardgrass [11] = test: Test C postemergence; format: in vivo, Echinochloa crusgalli; conditions: 10 days
Summary of the method: as §1

corn [12] = test: Test C preemergence; format: in vivo, Zea mays; conditions: 0 to 100 scale (0 no effect, 100 complete control)
Summary of the method: as §1

wheat [13] = test: Test C postemergence; format: in vivo, Triticum aestivum; conditions: 10 days
Summary of the method: as §1

kochia [14] = test: Test C preemergence; format: in vivo, Bassia scoparia; conditions: 0 to 100 scale (0 no effect, 100 complete control)
Summary of the method: as §1

barnyardgrass [15] = test: Test D flooded paddy test; format: in vivo, Echinochloa crus-galli; conditions: 250 g ai/ha, applied to paddy water, visual rating after 13 to 14 days, scale 0 to 100 (0 no effect, 100 complete control)
Summary of the method: as §2

green foxtail [16] = test: Test C preemergence; format: in vivo, Setaria viridis; conditions: 0 to 100 scale (0 no effect, 100 complete control)
Summary of the method: as §1

oat, wild [17] = test: Test C postemergence; format: in vivo, Avena fatua; conditions: 10 days
Summary of the method: as §1

sedge, umbrella = test: Test D flooded paddy test; format: in vivo, Cyperus difformis; conditions: 250 g ai/ha, applied to paddy water, visual rating after 13 to 14 days, scale 0 to 100 (0 no effect, 100 complete control)
Summary of the method: as §2

blackgrass [18] = test: Test C postemergence; format: in vivo, Alopecurus myosuroides; conditions: 10 days
Summary of the method: as §1

soybean [19] = test: Test C preemergence; format: in vivo, Glycine max; conditions: 0 to 100 scale (0 no effect, 100 complete control)
Summary of the method: as §1

corn [20] = test: Test C postemergence; format: in vivo, Zea mays; conditions: 10 days
Summary of the method: as §1

ducksalad = test: Test D flooded paddy test; format: in vivo, Heteranthera limosa; conditions: 250 g ai/ha, applied to paddy water, visual rating after 13 to 14 days, scale 0 to 100 (0 no effect, 100 complete control)
Summary of the method: as §2

ryegrass, Italian [21] = test: Test C postemergence; format: in vivo, Lolium multiflorum; conditions: 10 days
Summary of the method: as §1

oat, wild [22] = test: Test C preemergence; format: in vivo, Avena fatua; conditions: 0 to 100 scale (0 no effect, 100 complete control)
Summary of the method: as §1

ragweed [23] = test: Test C preemergence; format: in vivo, Ambrosia artemisiifolia; conditions: 0 to 100 scale (0 no effect, 100 complete control)
Summary of the method: as §1

[24] = Preemergence, 500 g ai/ha, visual rating after 10 days
[25] = Test C, preemergence, 125 g ai/ha
[26] = 125 g ai/ha, postemergence, 0 to 100 scale, 0 no effect, 100 complete control
[27] = Postemergence, 500 g ai/ha, visual 0 to 100 scale (0 no effect, 100 complete control)

With `Cc1cn(-c2cccc(C(=O)N3C[C@H](C)Oc4c(C)cccc43)c2)cn1` [Compound 232] the “Plant response rating, Wheat” value (wheat [1]; [24]) was 0, the “Wheat plant response rating” value (wheat [1]; [25]) was 0 and the “Plant response rating, Barnyardgrass” value (barnyardgrass [2]; [24]) was 0. For the same compound, the “Barnyardgrass plant response rating” value (barnyardgrass [2]; [25]) was 0, the “Plant response rating, Kochia” value (kochia [3]; [26]) was 0 and the “Plant response rating, Kochia” value (kochia [3]; [27]) was 60. For the same compound, the “Plant response rating, Pigweed, Palmer” value (pigweed, palmer [4]; [26]) was 0, the “Plant response rating, Pigweed, Palmer” value (pigweed, palmer [4]; [27]) was 10 and the “Plant response rating, Foxtail, Green” value (green foxtail [5]; [26]) was 0. For the same compound, the “Plant response rating, Foxtail, Green” value (green foxtail [5]; [27]) was 30, the “Plant response rating, Soybean” value (soybean [6]; [26]) was 100 and the “Plant response rating, Soybean” value (soybean [6]; [27]) was 100. The “Plant response rating, Ragweed” value (ragweed [7]; [26]) was 0, the “Plant response rating, Ragweed” value (ragweed [7]; [27]) was 30 and the “Plant response rating, Ryegrass, Italian” value (ryegrass, Italian [8]; [24]) was 20. For the same compound, the “Ryegrass, Italian plant response rating” value (ryegrass, Italian [8]; [25]) was 20, the “Plant response rating, Blackgrass” value (blackgrass [9]; [24]) was 0 and the “Blackgrass plant response rating” value (blackgrass [9]; [25]) was 0. The “Plant response rating, Pigweed, Palmer” value (pigweed, palmer [10]) was 0, the “Plant response rating, Rice (Flood)” value (rice) was 0 and the “Plant response rating, Horseweed” value (horseweed; [26]) was 0. The “Plant response rating, Horseweed” value (horseweed; [27]) was 0, the “Plant response rating, Barnyardgrass” value (barnyardgrass [11]; [26]) was 10 and the “Plant response rating, Barnyardgrass” value (barnyardgrass [11]; [27]) was 20. The “Plant response rating, Corn” value (corn [12]; [24]) was 0, the “Corn plant response rating” value (corn [12]; [25]) was 0 and the “Plant response rating, Wheat” value (wheat [13]; [26]) was 10. The “Plant response rating, Wheat” value (wheat [13]; [27]) was 10, the “Plant response rating, Kochia” value (kochia [14]; [24]) was 0 and the “Kochia plant response rating” value (kochia [14]; [25]) was 0. The “Plant response rating, Barnyardgrass (Flood)” value (barnyardgrass [15]) was 0, the “Plant response rating, Foxtail, Green” value (green foxtail [16]; [24]) was 0 and the “Foxtail, Green plant response rating” value (green foxtail [16]; [25]) was 0. For the same compound, the “Plant response rating, Oat, Wild” value (oat, wild [17]; [26]) was 0, the “Plant response rating, Oat, Wild” value (oat, wild [17]; [27]) was 0 and the “Plant response rating, Sedge, Umbrella (Flood)” value (sedge, umbrella) was 0. The “Plant response rating, Blackgrass” value (blackgrass [18]; [26]) was 0, the “Plant response rating, Blackgrass” value (blackgrass [18]; [27]) was 50 and the “Plant response rating, Soybean” value (soybean [19]; [24]) was 0. For the same compound, the “Soybean plant response rating” value (soybean [19]; [25]) was 0, the “Plant response rating, Corn” value (corn [20]; [26]) was 0 and the “Plant response rating, Corn” value (corn [20]; [27]) was 0. The “Plant response rating, Ducksalad (Flood)” value (ducksalad) was 0, the “Plant response rating, Ryegrass, Italian” value (ryegrass, Italian [21]; [26]) was 30 and the “Plant response rating, Ryegrass, Italian” value (ryegrass, Italian [21]; [27]) was 60. For the same compound, the “Plant response rating, Oat, Wild” value (oat, wild [22]; [24]) was 0, the “Oat, Wild plant response rating” value (oat, wild [22]; [25]) was 0 and the “Plant response rating, Ragweed” value (ragweed [23]; [24]) was 0. The “Ragweed plant response rating” value (ragweed [23]; [25]) was 0.
